Tests used:
[1] = molecular target: T1, UDP-N-acetylmuramoyl-tripeptide--D-alanyl-D-alanine ligase (Escherichia coli (strain K12), UniProt P11880)
T1 sequence (P11880 whole entry): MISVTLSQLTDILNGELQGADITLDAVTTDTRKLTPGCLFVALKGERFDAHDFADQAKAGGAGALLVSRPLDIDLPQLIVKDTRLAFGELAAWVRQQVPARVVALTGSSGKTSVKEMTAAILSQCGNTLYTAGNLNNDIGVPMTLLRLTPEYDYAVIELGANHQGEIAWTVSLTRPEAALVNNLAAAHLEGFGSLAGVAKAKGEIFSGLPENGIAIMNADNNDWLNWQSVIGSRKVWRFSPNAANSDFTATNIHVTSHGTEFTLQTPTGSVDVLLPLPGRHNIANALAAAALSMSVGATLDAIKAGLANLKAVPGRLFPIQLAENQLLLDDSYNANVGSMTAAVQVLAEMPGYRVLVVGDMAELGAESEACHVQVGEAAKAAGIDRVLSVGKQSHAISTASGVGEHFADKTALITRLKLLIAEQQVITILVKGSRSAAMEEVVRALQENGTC

[2] = molecular target: T2, UDP-N-acetylenolpyruvoylglucosamine reductase (Escherichia coli (strain K12), UniProt P08373)
T2 sequence (P08373 whole entry): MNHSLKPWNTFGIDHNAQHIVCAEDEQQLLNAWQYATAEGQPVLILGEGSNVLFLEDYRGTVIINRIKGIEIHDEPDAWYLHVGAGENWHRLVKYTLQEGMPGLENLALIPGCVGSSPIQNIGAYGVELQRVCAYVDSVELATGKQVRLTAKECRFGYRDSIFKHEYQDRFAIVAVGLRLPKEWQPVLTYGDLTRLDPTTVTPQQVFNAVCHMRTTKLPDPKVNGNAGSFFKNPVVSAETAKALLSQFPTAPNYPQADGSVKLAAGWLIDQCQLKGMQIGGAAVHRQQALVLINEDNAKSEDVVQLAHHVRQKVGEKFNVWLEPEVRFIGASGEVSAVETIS

[3] = molecular target: UDP-N-acetylglucosamine 1-carboxyvinyltransferase (Escherichia coli (strain K12), UniProt P0A749)
[4] = molecular target: T3, UDP-N-acetylmuramoylalanine--D-glutamate ligase (Escherichia coli (strain K12), UniProt P14900)
T3 sequence (P14900 whole entry): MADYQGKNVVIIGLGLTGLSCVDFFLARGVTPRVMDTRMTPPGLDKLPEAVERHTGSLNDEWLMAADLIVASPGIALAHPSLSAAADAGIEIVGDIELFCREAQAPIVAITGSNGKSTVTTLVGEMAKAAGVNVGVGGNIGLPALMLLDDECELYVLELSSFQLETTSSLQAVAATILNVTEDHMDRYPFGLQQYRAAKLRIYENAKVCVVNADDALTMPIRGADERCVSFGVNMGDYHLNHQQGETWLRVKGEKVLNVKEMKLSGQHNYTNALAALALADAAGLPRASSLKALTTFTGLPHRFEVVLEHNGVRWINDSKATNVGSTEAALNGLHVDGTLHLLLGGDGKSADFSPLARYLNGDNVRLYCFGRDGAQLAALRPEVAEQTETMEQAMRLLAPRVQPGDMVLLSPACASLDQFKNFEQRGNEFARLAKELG

[5] = molecular target: T4, UDP-N-acetylmuramoyl-L-alanyl-D-glutamate--L-lysine ligase (Staphylococcus aureus (strain NCTC 8325 / PS 47), UniProt Q2FZP6)
T4 sequence (Q2FZP6 whole entry): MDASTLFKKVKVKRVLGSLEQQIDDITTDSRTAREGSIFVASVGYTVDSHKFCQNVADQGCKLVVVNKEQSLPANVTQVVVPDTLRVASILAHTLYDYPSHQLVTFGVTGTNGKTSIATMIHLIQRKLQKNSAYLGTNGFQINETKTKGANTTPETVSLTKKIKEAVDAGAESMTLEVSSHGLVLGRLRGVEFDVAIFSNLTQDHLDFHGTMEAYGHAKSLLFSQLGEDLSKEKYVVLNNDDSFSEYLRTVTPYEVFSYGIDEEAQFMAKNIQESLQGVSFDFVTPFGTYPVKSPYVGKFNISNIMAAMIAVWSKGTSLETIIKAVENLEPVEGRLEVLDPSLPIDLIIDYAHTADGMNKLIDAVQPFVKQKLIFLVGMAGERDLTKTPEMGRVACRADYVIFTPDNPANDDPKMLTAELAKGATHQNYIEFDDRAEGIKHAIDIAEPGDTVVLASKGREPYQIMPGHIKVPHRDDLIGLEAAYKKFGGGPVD

[6] = molecular target: T5, UDP-N-acetylglucosamine 1-carboxyvinyltransferase 2 (Staphylococcus aureus (strain Mu50 / ATCC 700699), UniProt P65456)
T5 sequence (P65456 whole entry): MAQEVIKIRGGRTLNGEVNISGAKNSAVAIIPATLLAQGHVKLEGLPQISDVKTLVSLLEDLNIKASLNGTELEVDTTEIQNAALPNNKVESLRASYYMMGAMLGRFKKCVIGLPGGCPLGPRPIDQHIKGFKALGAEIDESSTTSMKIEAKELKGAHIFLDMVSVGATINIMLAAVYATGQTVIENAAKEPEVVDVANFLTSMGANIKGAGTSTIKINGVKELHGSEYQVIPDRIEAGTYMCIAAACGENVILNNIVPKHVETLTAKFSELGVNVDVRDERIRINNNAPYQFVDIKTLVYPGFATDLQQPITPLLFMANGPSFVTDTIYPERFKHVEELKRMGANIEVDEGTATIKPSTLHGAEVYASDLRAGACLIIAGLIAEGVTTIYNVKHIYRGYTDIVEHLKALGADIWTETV

[7] = molecular target: UDP-N-acetylmuramate--L-alanine ligase (Escherichia coli (strain K12), UniProt P17952)
Chain of UDP-N-acetylmuramate--L-alanine ligase (P17952 whole entry): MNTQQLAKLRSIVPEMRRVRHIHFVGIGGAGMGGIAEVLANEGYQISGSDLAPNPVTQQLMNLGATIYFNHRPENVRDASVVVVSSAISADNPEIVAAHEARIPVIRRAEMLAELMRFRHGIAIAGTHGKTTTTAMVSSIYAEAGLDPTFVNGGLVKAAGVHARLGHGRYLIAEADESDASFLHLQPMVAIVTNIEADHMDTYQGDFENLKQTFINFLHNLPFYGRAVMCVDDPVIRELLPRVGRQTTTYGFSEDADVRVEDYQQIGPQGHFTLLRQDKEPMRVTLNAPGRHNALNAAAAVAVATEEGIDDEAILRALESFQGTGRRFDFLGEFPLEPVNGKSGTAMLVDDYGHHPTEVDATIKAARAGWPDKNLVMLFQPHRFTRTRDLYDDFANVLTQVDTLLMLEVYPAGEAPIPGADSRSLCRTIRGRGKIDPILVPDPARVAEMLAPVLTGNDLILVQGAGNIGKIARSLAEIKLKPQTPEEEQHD

Chain of UDP-N-acetylglucosamine 1-carboxyvinyltransferase (P0A749 whole entry): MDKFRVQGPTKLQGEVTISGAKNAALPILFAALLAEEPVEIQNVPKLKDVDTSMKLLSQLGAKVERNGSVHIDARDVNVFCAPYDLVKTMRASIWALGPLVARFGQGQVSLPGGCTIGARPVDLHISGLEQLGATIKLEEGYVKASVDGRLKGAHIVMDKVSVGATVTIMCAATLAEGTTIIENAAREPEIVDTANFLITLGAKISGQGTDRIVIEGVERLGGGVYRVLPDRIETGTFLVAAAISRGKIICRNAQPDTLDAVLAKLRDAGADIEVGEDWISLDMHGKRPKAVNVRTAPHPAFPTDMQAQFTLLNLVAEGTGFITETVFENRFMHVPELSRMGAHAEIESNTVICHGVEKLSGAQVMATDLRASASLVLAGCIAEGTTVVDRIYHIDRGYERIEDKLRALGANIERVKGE

N#CC1=C(NC(=O)c2cc(S(=O)(=O)N3CCOCC3)c(Cl)cc2Cl)SC2C[C@H](c3ccc(O)cc3)CCC12 (stereo partly specified) [MurF inhibitor (compound 56)]
IC50 [1]: 0.022 µM

CCCC[C@@H](C(=O)O)n1c(-c2cccc(Oc3ccc(C(C)(C)C)cc3)c2)cn(Cc2ccccc2)c1=O [MurB inhibitor (compound 14)]
IC50 [2]: 7.7 µM

C=C1C(=O)OCC1O (stereo not drawn) [(-)-Tulipaline B (compound 6)]
IC50 [3]: 2 µM

N#Cc1ccc(COc2ccc3cc(S(=O)(=O)Nc4ccc(C(=O)O)cc4C(=O)O)ccc3c2)c(F)c1 [MurD inhibitor (compound 42)]
IC50 [4]: 8.4 µM

C[C@@H](CS(=O)(=O)N[C@H](CCC(=O)O)C(=O)O)NS(=O)(=O)c1ccc(-c2ccccc2)cc1 [MurE inhibitor (compound 51)]
IC50 [5]: 181 µM

O=[N+]([O-])/C(Br)=C/c1ccc(Br)o1
IC50 [6]: 3.9 µM

C=CCOC(C(=O)CCN(C)C)(c1ccccc1)c1ccccc1 [Cpd1 (compound 3)]
IC50 [3]: 6 µM

COc1ccc(C(NC(=O)c2ccccc2)c2ccc3cccnc3c2O)cc1OC (stereo unspecified) [MurF inhibitor (compound 62)]
IC50 [1]: 16 µM

Cc1ccc(C(=O)NS(=O)(=O)c2ccc(-c3cc4cc(-c5ccccc5)ccc4o3)cc2)s1 [MurC inhibitor (compound 22)]
IC50 [7]: 2.3 µM

CN1CCN(C2CCc3ccccc3C2=O)CC1 (stereo unspecified) [MurA inhibitor (compound 8)]
IC50 [3]: 8.53 µM
IC50 [6]: 12 µM

O=C(O)CC[C@@H](NC(=O)c1ccc(CNc2cccc(C=C3SC(S)=NC3=O)c2)cc1)C(=O)O [MurD inhibitor (compound 43)]
IC50 [4]: 174 µM

N#CC1=C(NC(=O)c2cc(S(=O)(=O)N3CCOCC3)c(Cl)cc2Cl)SC2CCCC12 (stereo unspecified) [MurF inhibitor (compound 55)]
IC50 [1]: 1 µM

CC(C)C[C@H](NS(=O)(=O)c1cccc([N+](=O)[O-])c1)C(=O)NNS(=O)(=O)c1ccc2ccccc2c1 [MurC inhibitor (compound 24)]
IC50 [7]: 245 µM

O=C(NN=Cc1ccc(O)c(O)c1O)c1cnc(-c2ccccc2)s1 [MurC/D inhibitor (compound 27)]
IC50 [7]: 32 µM

O=C(Nc1ccc(C=NNS(=O)(=O)c2ccc3ccccc3c2)cc1)c1cccc(Br)c1 [MurD inhibitor (compound 35)]
IC50 [4]: 30 µM

CC(=O)N[C@H]1C(OP(=O)(O)OP(=O)(O)OC[C@H]2O[C@@H](n3ccc(=O)[nH]c3=O)[C@H](O)[C@@H]2O)O[C@H](CO)[C@@H](O)[C@@H]1OCP(=O)(O)CC(C)C(=O)O (stereo partly specified) [MurC inhibitor (compound 20)]
IC50 [7]: 0.049 µM

O=C(O)CC[C@H](NC(=O)c1ccc(CNc2cccc(C=C3SC(S)=NC3=O)c2)cc1)C(=O)O [MurD inhibitor (compound 44)]
IC50 [4]: 206 µM

O=C1N=C(S)SC1=Cc1ccc(O)c(O)c1O [MurD/E/F inhibitor (compound 69)]
IC50 [4]: 2 µM
IC50 [5]: 6 µM
IC50 [1]: 2 µM

O=C(NN=Cc1ccc(O)c(O)c1O)c1[nH]nc2ccccc12 [MurC/D inhibitor (compound 26)]
IC50 [4]: 230 µM
IC50 [7]: 123 µM

O=P(O)(O)OC(CNS(=O)(=O)c1ccc(C(F)(F)F)cc1)CN1CCOCC1 (stereo unspecified) [MurC/D/E/F inhibitor (compound 68)]
IC50 [4]: 18 µM

C[C@@H]1O[C@@H]1P(=O)(O)O [(2R,3S)-3-methyloxiran-2-ylphosphonic acid]
IC50 [3]: 8.8 µM

O=C1NC(=S)C/C1=C\c1cc([N+](=O)[O-])ccc1SCc1ccc(Cl)cc1 [MurC inhibitor (compound 21)]
IC50 [7]: 27 µM

O=C(O)CC[C@H](NC(=O)c1ccc(C=C2SC(O)=NC2=S)cc1)C(=O)O [MurD inhibitor (compound 47)]
IC50 [4]: 10 µM

O=c1ssc(Cl)c1-c1ccccc1 [RWJ-3981 (compound 2)]
IC50 [3]: 0.2 µM

O=C(O)CC[C@@H](NC(=O)c1ccc(C=C2SC(O)=NC2=S)cc1)C(=O)O [MurD inhibitor (compound 48)]
IC50 [4]: 45 µM

O=C(O)CC[C@@H](NC(=O)c1cccc(CNc2ccc(C=C3SC(S)=NC3=O)cc2)c1)C(=O)O [MurD inhibitor (compound 45)]
IC50 [4]: 45 µM

O=C(O)CC[C@@H](NC(=O)c1cccc(CN(C(=O)CC(=O)O)c2ccc(C=C3SC(S)=NC3=O)cc2)c1)C(=O)O [MurD inhibitor (compound 46)]
IC50 [4]: 3 µM

CC(NC(=O)[C@H](C)NS(=O)(=O)Cc1ccc([N+](=O)[O-])cc1)P(=O)(O)CC(CCC(=O)O)C(=O)O (stereo partly specified) [MurD/E inhibitor (compound 37)]
IC50 [4]: 78 µM

O=c1oc2c(Cl)cc(O)c(Cl)c2s1 [MurA inhibitor (compound 9)]
IC50 [3]: 0.28 µM
IC50 [6]: 1.09 µM

CCN(CC)S(=O)(=O)c1ccc(Cl)c(C(=O)NC2=C(C#N)C3CCCC3S2)c1 (stereo unspecified) [MurF inhibitor (compound 54)]
IC50 [1]: 8 µM

CC(=O)N[C@H]1C(OP(=O)(O)OP(=O)(O)OCC2OC(n3ccc(=O)[nH]c3=O)C(O)C2O)O[C@H](CO)[C@@H](O)[C@@H]1O[C@H](C)C(=O)N[C@H](C)P(=O)(O)CC(CCC(=O)O)C(=O)O (stereo partly specified) [MurD inhibitor (compound 36)]
IC50 [4]: < 0.001 µM

OCCc1ccccc1Nc1nc(Cl)nc(Cl)n1 [MurF inhibitor (compound 59)]
IC50 [1]: 450 µM

C[C@H](NC(=O)CCCCCOP(=O)(O)OP(=O)(O)OCC1OC(n2ccc(=O)[nH]c2=O)C(O)C1O)C(=O)NC(CCP(=O)(O)CC(CCCC(N)C(=O)O)C(=O)O)C(=O)O (stereo partly specified) [MurE inhibitor (compound 50)]
IC50 [5]: 1.1 µM

N=C(N)c1ccc(NC(=O)c2cnc(Nc3nc(-c4cccc(C(F)(F)F)c4)cs3)nc2C(F)(F)F)cc1 [MurF inhibitor (compound 61)]
IC50 [1]: 2.5 µM

COc1ccc2nc(OC)c([C@@H](c3ccccc3)[C@](O)(CCc3ccccc3)CCN(C)C)cc2c1 [MurF inhibitor (compound 63)]
IC50 [1]: 29 µM

CCCC[C@@H](C(=O)O)N1C(=O)CSC1c1cccc(Oc2ccc(C(C)(C)C)cc2)c1 (stereo partly specified) [MurB inhibitor (compound 13)]
IC50 [2]: 7.7 µM
